# Measured values published in patent US11400269B2, “Using alternating electric fields to increase permeability of the blood brain barrier” (Novocure GmbH, priority 2018, dated 2022).
# Experiments:
# rat brain (BBB) [1] = assay: DCE-MRI contrast agent accumulation in rat brain; format: in vivo
# Protocol: Yet another set of in vivo experiments was performed using Dynamic Contrast Enhanced MRI (DCE-MRI) with intravenous injection of Gadolinium contrast agent (Gd-DTPA, Magnetol, MW 547). In these experiments, test rats were treated with 100 kHz alternating electric fields for 72 h, and control rats were not treated with alternating electric fields for the same period of time. After this 72 h period, the alternating electric field was turned off, the rats were anesthetized, and a series of 60 T1w MRI scans (each of the scans having a duration of 28 seconds) was acquired. The gadolinium contrast agent was injected into the rat's tail vein during the 7th of these 60 scans.
# The image analysis for each rat included (1) determining a baseline for each voxel by calculating the mean of the first six T1w MRI scans for each voxel (i.e., the scans prior to the injection of the gadolinium); (2) computing voxel by voxel, the percent signal change (i.e., gadolinium accumulation) over time relative to the baseline; (3) segmenting the brain into anterior, middle, and posterior segments; (4) generating for each of the three segments the mean percent signal change with respect to the baseline over all the voxels in the respective segment and then (5) averaging 4 consecutive time points (i.e. 4 scans) together. Finally, the data from all of the rats within any given group were averaged together. […]
# rat brain (BBB) [2] = assay: Evans Blue accumulation in rat brain after alternating electric fields; format: in vivo
# Description: A set of in vivo experiments on rats was also run to quantify the increase in vessel permeability caused by exposure to the alternating electric fields. These experiments used Evans Blue (EB) dye, which is an azo dye that has a very high affinity for serum albumin (molecule size ˜69 kDa). Because of its large molecule size, serum albumin will ordinarily not be able to get past the BBB.
# This was accomplished by shaving each rat's head, positioning a first pair of capacitively coupled electrodes on the top and bottom of the rat's head, and positioning a second pair of capacitively coupled electrodes on the left and right sides of the rat's head. A 100 kHz AC voltage was then applied between the top and bottom electrodes for 1 second, followed by a 100 kHz AC voltage applied between the right and left electrodes for 1 second, in a repeating sequence.
# Under the conditions indicated in Table 1 and for the times indicated on Table 1, EB was injected intravenously into the tail vein under anesthesia (Once injected, EB immediately binds to Albumin), and the EB was allowed to circulate for 2 hours in all cases. The following steps were then performed: (a) intracardiac perfusion with saline; (b) brains are sliced in four pieces with a brain slicer; (c) pieces were photographed to localize staining and weighted; (d) EB extraction after tissue homogenization with TCA 50% (1:3) and centrifuge and (e) EB quantification at 610 nm. Results are given as μg EB per g tissue.
# During the experiment, two animals from group 2 and one animal from group 4 were excluded (disrupted treatment, failure to inject EB into the tail vein). There were no differences between the animals treated with alternating electric fields (groups 1 and 2) and therefore these animals were grouped together. Similarly, there were no differences between sham heat and control animals (groups 3 and 4) and therefore these animals were grouped together.
# EB accumulation in these four specific sections was then measured. In addition, a computer simulation was performed to determine the field strength in each of these four sections. […]
# [3] = 100 kHz fields 72 h vs sham heat/control, EB i.v., circulated 2 hours, measured as μg EB per g tissue, FIG. 5
SMILES,"contrast agent accumulation in the brain tissue (percent signal change) (rat brain (BBB) [1]; 100 kHz fields 72 h (n=6) vs control rats (n=3), i.v., FIG. 7)",contrast agent accumulation in the brain tissue (percent signal change) after recovery (rat brain (BBB) [1]; 72 hours fields followed by 96 hours without fields (n=7) vs control+96 h (n=3)),"average EB accumulation in the rat brain, averaged over all four sections 1-4 (rat brain (BBB) [2]; 100 kHz fields 72 hours vs sham heat/control, p<0.05, FIG. 6)","EB accumulation, more posterior sections (3, 4) (rat brain (BBB) [2]; [3])","EB accumulation, sections 1, 2 (frontal cerebrum) (rat brain (BBB) [2]; [3])"
"O=C([O-])CN(CCN(CC(=O)[O-])CC(=O)O)CCN(CC(=O)[O-])CC(=O)O.[Gd+3] [contrast agent, Gd-DTPA]",significantly higher,not significantly different,,,
"Cc1cc(-c2ccc(/N=N/c3ccc4c(S(=O)(=O)O)cc(S(=O)(=O)O)c(N)c4c3O)c(C)c2)ccc1/N=N/c1ccc2c(S(=O)(=O)O)cc(S(=O)(=O)O)c(N)c2c1O [EB, Evans Blue]",,,higher accumulation,smaller increase (that was not statistically significant),statistically significant increase
